Test results from US5001158A, “Nitrosoureas compounds preparation thereof and utilization thereof in anticancerous” (Centre National de la Recherche Scientifique, priority 1990, dated 1991).

What was measured:
Assay type in all cases: in vivo, mice (male B6 D2 F1 /OLA)
leukemia strain L1210 = assay: Antitumoral activity on leukemia L1210 i.p. in mice, unoxidized compounds (ICIG); conditions: for survival rate after 60 days: at different doses; for I indices (in words): i.p., leukemia L1210
Protocol: The oncostatic activity of these nitrosated derivatives was determined at the I.C.I.G. in VILLEJUIF (Department of Prof. MATHE) following a described experimental protocol: M. HAYAT et al , Cancer Chemother. Pharmacol., 1979, 3, 217-221; R. MARAL et al., Eur. J. Med. Chem., submitted for publication.
(§1) Male B6 D2 F1 /OLA mice are inoculated intraperitoneally with 10^5 cells of the leukemia strain L1210 on day 0 and divided into groups. The first is the control group and the others are treated with the drugs at different concentrations on days 1, 5 and 9. The compounds are injected as a suspension in olive oil. The mortality of the animals is observed and the autopsy indicates whether it is due to leukemia or to the toxic action of the products.
(§2) The 50% lethal dose (LD50 acute) is determined by taking into account the mortality which has occurred before the 8th day among the animals treated on day D:1. The survival median of the treated animals (mT) and the control animals (mC) was established and Wilcoxon's non-parametric statistical test was applied. The results are considered positive if the index I [formula] is greater than 125 and the test Is significant at p≤0.05.

[1] = 50% lethal dose (LD50 acute) in mice; conditions: mouse, in vivo, ip, mortality before the 8th day
Protocol: as §1, §2

mice = assay: 50% lethal dose (LD50 acute) in mice; conditions: i.p.
Protocol: as §1, §2

Row | Structure (SMILES) | % of animals surviving to 60 days (leukemia strain L1210; 5 mg/kg i.p., days 1,5,9) [%] | index I (survival median treated vs control) (leukemia strain L1210; 5 mg/kg i.p., days 1,5,9) | % of animals surviving to 60 days (leukemia strain L1210; 10 mg/kg i.p., days 1,5,9) [%] | index I (survival median treated vs control) (leukemia strain L1210; 10 mg/kg i.p., days 1,5,9) | % of animals surviving to 60 days (leukemia strain L1210; 12.5 mg/kg i.p., days 1,5,9) [%] | index I (survival median treated vs control) (leukemia strain L1210; 12.5 mg/kg i.p., days 1,5,9) | % of animals surviving to 60 days (leukemia strain L1210; 15 mg/kg i.p., day +1) [%] | index I (survival median treated vs control) (leukemia strain L1210; 15 mg/kg i.p., day +1) | survival rate after 60 days (leukemia strain L1210) [%] | I indices (in words) (leukemia strain L1210) | LD50 [1] [mg/kg] | % of animals surviving to 60 days (leukemia strain L1210; 15 mg/kg i.p., days 1,5,9) [%] | % of animals surviving to 60 days (leukemia strain L1210; 20 mg/kg i.p., days 1,5,9) [%] | toxicity (in words) (mice)
1 | O=NN(CCCl)C(=O)NCCS [(1), N-[N-(2-Chloroethyl)-N-nitrosocarbamoyl]cysteamine] | 100 | .infin. (50% or more of the animals survive to day +60) | 100 | .infin. (50% or more of the animals survive to day +60) | 100 | .infin. (50% or more of the animals survive to day +60) | 100 | .infin. (50% or more of the animals survive to day +60) | 100 | at infinity | 19 to 25 |  |  | 
2 | CSCCNC(=O)N(CCCl)N=O [(3), S-methyl-N-[N-(2-chloroethyl)-N-nitrosocarbamoyl] cysteamine] |  | .infin. (50% or more of the animals survive to day +60) |  |  | 100 | .infin. (50% or more of the animals survive to day +60) |  |  | 100 | at infinity | 19 to 25 | 87 |  | 
3 | CC(=O)SCCNC(=O)N(CCCl)N=O [(5), S-acetyl-N-[N-(2-chloroethyl)-N-nitrosocarbamoyl] cysteamine] |  |  | 14 | .infin. (50% or more of the animals survive to day +60) | 100 | .infin. (50% or more of the animals survive to day +60) |  |  | 100 | at infinity | 19 to 25 | 80 | 25 | 
4 | O=NN(CCCl)C(=O)NCCSC(c1ccccc1)(c1ccccc1)c1ccccc1 [(9), S-Trityl-N-[N-(2-chloroethyl)-N-nitrosocarbamoyl]cysteamine] |  |  |  |  |  |  |  |  |  |  | > 625 |  |  | not toxic
